Experimental data: publication PMC6493727, “FluoroCellTrack: An algorithm for automated analysis of high-throughput droplet microfluidic data” (PLoS ONE, 2019)

Tested on: OPM-2 cells
Test: Dose response of single OPM-2 cells to Bortezomib, live/dead staining in a droplet trapping array
Type: cell-based
Conditions: for Dead Cells / Live Cells: Calcein AM/EthD-1 staining; for Dead Cells / Live Cells / Overlapping Cells: FluoroCellTrack automated count, n=787 droplets
Source text: First, a mask was generated by detecting differently colored cells from the input image, Fig 3A. This mask (Fig 3B) was overlapped with the input image and was subjected to edge detection, dilation and erosion to yield Fig 3C, which was then segmented through random walker algorithm to detect and distinguish attached cells. Random walker segmentation algorithm was used over traditional watershed algorithm due to its highly precise probabilistic interpretation of local maxima (Fig 3D). The distinguished contours from this image were then filtered for area, where cellular area equal to or greater than 130 pixels were outlined and labeled as shown in Fig 3E. 130 was selected as the thresholding value due to the mean cellular area being ~140 pixels. This step was essential to exclude debris to eliminate false positives. However, in case of co-culture platforms, where primary cells are of the same size as that of the secondary cells, or in systems where the debris is of the same size as that of the cells, specific cellular or organelle staining can be used to distinguish these features and the extensive palette used in computer vision aids in easy detection of such features. […] For instance, similar features with slight deviations in shape, size and orientation were easily detected by the droplet/contour detection steps of FluoroCellTrack but would need a repository of many templates while using the template matching feature, showing that the latter can be highly uneconomical. The broad palette of colors in computer vision can be exploited here to detect any fluorescent cell and as an example here, the contour detection step was implemented to quantify actual cellular viability data as shown in Fig 4. Lower [B, G, R]: [0, 51, 0] and upper [B, G, R]: [153, 255, 153] boundaries were given for live cells and, dead cells were identified with the lower and upper color boundaries at; [153, 153, 255] while overlapping cells were identified with lower and upper color boundaries of [0, 51, 51]; [153, 255, 255]. Cells with overlapping signals in both the green and red filter sets represent cells with compromised plasma membranes (indicative of a dead cell), but with remaining esterase activity to react with the Calcein AM. These cells were noted as ‘dying’ cells to distinguish them from the clean live and dead signals using the other contour boundaries. The contours with specific colors were detected from the input images, where the positively detected live, dead and overlapping cells with an area equal to or greater than 130 pixels were outlined with distinct colors: live cells in red, dead cells in blue and overlapping cells in purple (Fig 4). The outlined cell-center map was overlaid with the droplet center map and scanned to fit within 25<R<50-micron values (denoted by white arrows), to account for single/multiple cell encapsulation information as shown in the output data of Fig 4. This step was essential to calculate the single-cell encapsulation efficiency and to eliminate cells that were freely floating in the device, thus including cells that were only inside the droplets. Additionally, the user can easily eliminate the droplet detection step to use this contour detection as a stand-alone platform (similar to ImageJ and Cell Profiler) to detect and quantify properties of fluorescent cells from other microfluidic or non-microfluidic applications. The advantage of FluoroCellTrack over current software tools like ImageJ and Cell Profiler lies in the fact that the former can be employed in non-droplet microfluidic platforms in addition to droplet microfluidics, but the latter cannot be used to quantify high-throughput droplet microfluidic data.
An important application of any automated platform is to count cells and sort them based on their fluorescent response. As an example, the dose-dependent single cell response of OPM-2 cells to a clinical inhibitor, Bortezomib was observed. […]

With CC(C)C[C@H](NC(=O)[C@H](Cc1ccccc1)NC(=O)c1cnccn1)B(O)O [BTZ, Bortezomib] the “Dead Cells” value (1 nM BTZ, Day 1 (24 h)) was 5, the “Live Cells” value (1 nM BTZ, Day 1 (24 h)) was 311 and the “Overlapping Cells” value (1 nM BTZ, Day 1 (24 h), overlapping = dying cells (green and red signal)) was 28. For the same compound, the “Dead Cells” value (1 nM BTZ, Day 2 (48 h)) was 10, the “Live Cells” value (1 nM BTZ, Day 2 (48 h)) was 53 and the “Overlapping Cells” value (1 nM BTZ, Day 2 (48 h), overlapping = dying cells) was 45. For the same compound, the “Dead Cells” value (1 nM BTZ, Day 3 (72 h)) was 53, the “Live Cells” value (1 nM BTZ, Day 3 (72 h)) was 140 and the “Overlapping Cells” value (1 nM BTZ, Day 3 (72 h), overlapping = dying cells) was 206. The “viability of single OPM-2 cells” value (1 nM, 10 nM and 100 nM, 24 h, 48 h and 72 h incubation) was “decrease in viability at increasing concentrations and incubation times”, the “Dead Cells” value (10 nM BTZ, Day 1 (24 h)) was 5 and the “Live Cells” value (10 nM BTZ, Day 1 (24 h)) was 49. The “Overlapping Cells” value (10 nM BTZ, Day 1 (24 h), overlapping = dying cells) was 38, the “Dead Cells” value (10 nM BTZ, Day 2 (48 h)) was 67 and the “Live Cells” value (10 nM BTZ, Day 2 (48 h)) was 15. For the same compound, the “Overlapping Cells” value (10 nM BTZ, Day 2 (48 h), overlapping = dying cells) was 113, the “Dead Cells” value (10 nM BTZ, Day 3 (72 h)) was 92 and the “Live Cells” value (10 nM BTZ, Day 3 (72 h)) was 0. The “Overlapping Cells” value (10 nM BTZ, Day 3 (72 h), overlapping = dying cells) was 107, the “Dead Cells” value (100 nM BTZ, Day 1 (24 h)) was 75 and the “Live Cells” value (100 nM BTZ, Day 1 (24 h)) was 0. For the same compound, the “Overlapping Cells” value (100 nM BTZ, Day 1 (24 h), overlapping = dying cells) was 100, the “Dead Cells” value (100 nM BTZ, Day 2 (48 h)) was 320 and the “Live Cells” value (100 nM BTZ, Day 2 (48 h)) was 3. For the same compound, the “Overlapping Cells” value (100 nM BTZ, Day 2 (48 h), overlapping = dying cells) was 149, the “Dead Cells” value (100 nM BTZ, Day 3 (72 h)) was 108 and the “Live Cells” value (100 nM BTZ, Day 3 (72 h)) was 0. For the same compound, the “Overlapping Cells” value (100 nM BTZ, Day 3 (72 h), overlapping = dying cells) was 17.
